# pEC50: −log10 of the molar value.
# Test: Positive allosteric modulation of GABA-B receptor in rat brain cortex membranes assessed as increase in GABA-induced [35S]GTPgammaS binding after 60 mins by liquid scintillation counting method
# Format: cell membranes
row,Structure (SMILES),pEC50
1,COc1ccc(NC(C)=O)cc1-c1nn([C@@H](C)c2ccc(Cl)cc2)c(=O)c2c(C3CC3)noc12,7.29
2,Cc1noc2c(-c3cncc(F)c3)nn(C(C)c3ccc(Cl)cc3)c(=O)c12 (stereo unspecified),5.57
3,COc1ccc(NC(C)=O)cc1-c1nn([C@@H](C)c2ccc(Cl)cc2)c(=O)c2c(C)noc12,7.37
4,COc1ccc(C(N)=O)cc1-c1nn(C(C)c2ccc(Cl)cc2)c(=O)c2c(C)noc12 (stereo unspecified),7.77

# More lines, in order of rising pEC50, values ahead:
row,pEC50,Structure (SMILES)
1,5.59,CC(=O)Nc1cccc(-c2nn(Cc3ccc(Cl)cc3)c(=O)c3c(C(C)C)noc23)c1
2,7.64,CNC(=O)c1ccc(OC)c(-c2nn([C@@H](C)c3ccc(Cl)cc3)c(=O)c3c(C)noc23)c1

# Source: ChEMBL document CHEMBL3994670, “Therapeutic Advantage of the Positive Allosteric Modulators of the GABA-B Receptor” (ACS Med Chem Lett, 2017)
